Reference: patent US11541056B2, “3-hydroxy-N-(3-(7H-pyrrolo[2,3-d]pyrimidin-4-yl)phenyl)pyrrolidine-1-carboxamide derivatives” (NOVARTIS AG, priority 2018, dated 2023)

How the values were obtained:
Assay type in all cases: cell-based
IKZF3-GFP = biological target: T1, IKZF3-GFP (Homo sapiens, UniProt Q9UKT9); assay: IKZF3-GFP protein abundance flow cytometry assay in HEK293A cells; settings: 24 h, Table 1
T1 construct: gateway cloning of IKZF3 from a pENTR221-IKZF3(STOP-Leu) construct into the previously described pLenti6-DEST-GFP-Ires-RFP vector; expressed in transfected cells; host or cells: HEK293A cells (Invitrogen R70507), lentiviral transduction with pLenti6-IKZF3-GFP-Ires-RFP, blasticidin-selected
T1 sequence (Q96SW2 whole entry partner): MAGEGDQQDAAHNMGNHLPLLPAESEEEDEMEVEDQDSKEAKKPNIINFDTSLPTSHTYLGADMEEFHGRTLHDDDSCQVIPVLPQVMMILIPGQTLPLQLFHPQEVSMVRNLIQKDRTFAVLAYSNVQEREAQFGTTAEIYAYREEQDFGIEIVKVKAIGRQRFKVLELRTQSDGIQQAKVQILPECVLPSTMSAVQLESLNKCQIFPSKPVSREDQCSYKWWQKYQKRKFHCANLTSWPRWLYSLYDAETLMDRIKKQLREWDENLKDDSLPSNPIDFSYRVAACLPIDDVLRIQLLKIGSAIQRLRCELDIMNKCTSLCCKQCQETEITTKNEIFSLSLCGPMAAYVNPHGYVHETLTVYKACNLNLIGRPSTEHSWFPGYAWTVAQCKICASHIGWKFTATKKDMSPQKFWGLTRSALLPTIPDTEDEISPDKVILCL
T1 sequence (Q16531 whole entry partner): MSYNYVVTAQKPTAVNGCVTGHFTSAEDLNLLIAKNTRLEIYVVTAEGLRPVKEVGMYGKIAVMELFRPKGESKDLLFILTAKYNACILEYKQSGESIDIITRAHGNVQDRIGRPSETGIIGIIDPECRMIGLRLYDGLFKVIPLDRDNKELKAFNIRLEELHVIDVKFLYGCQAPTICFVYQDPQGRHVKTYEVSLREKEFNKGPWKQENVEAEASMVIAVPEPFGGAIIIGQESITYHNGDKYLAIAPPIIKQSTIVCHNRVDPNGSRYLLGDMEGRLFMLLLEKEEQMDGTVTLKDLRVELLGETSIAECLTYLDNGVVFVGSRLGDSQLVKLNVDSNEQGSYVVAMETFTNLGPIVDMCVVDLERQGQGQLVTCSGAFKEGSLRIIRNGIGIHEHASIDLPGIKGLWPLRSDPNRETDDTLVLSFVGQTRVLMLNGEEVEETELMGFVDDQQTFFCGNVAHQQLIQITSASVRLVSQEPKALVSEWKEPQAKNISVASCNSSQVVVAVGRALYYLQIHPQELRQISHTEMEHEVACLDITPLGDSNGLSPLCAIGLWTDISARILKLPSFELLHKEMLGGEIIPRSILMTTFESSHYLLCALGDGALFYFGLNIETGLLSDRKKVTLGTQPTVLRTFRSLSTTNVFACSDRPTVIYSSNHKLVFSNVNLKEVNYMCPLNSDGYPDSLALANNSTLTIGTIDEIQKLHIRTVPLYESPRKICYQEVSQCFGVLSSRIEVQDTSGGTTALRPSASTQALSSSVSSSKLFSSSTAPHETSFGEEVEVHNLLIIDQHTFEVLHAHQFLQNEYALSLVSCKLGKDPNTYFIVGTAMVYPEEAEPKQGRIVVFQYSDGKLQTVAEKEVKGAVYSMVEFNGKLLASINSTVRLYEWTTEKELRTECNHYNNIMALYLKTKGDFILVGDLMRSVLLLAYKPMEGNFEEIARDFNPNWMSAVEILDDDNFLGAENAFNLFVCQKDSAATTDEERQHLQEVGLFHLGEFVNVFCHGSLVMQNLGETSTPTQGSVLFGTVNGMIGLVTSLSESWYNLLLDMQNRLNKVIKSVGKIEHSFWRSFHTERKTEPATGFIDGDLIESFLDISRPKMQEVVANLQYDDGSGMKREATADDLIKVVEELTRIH
T1 sequence (Q9UKT9 whole entry): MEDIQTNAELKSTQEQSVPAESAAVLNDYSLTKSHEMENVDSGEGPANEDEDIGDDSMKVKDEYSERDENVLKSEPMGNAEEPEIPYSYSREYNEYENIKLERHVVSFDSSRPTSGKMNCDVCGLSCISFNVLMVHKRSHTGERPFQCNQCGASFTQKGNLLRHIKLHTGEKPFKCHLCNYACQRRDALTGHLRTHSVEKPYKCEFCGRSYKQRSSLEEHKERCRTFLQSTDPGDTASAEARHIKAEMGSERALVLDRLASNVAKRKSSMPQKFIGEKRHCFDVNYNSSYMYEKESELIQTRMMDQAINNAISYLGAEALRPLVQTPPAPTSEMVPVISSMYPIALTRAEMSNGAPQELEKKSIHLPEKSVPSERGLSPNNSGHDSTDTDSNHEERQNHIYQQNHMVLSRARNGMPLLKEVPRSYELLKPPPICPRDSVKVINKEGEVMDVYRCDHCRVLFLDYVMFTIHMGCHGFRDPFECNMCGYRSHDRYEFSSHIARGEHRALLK
Description: Compounds of the invention were tested in the following cellular assays. […] TMD8 cells are BTK dependent and OCI-LY3 cells are BTK independent.
(§1) BTK-GFP and IKZF3-GFP Protein Abundance Flow Cytometry Assay in HEK293A Cells:
(§2) Degradation of BTK or IKZF3 was measured in HEK293A cells (Invitrogen R70507) expressing either BTK-GFP and RFP or IKZF3-GFP and RFP from a stably integrated bicistronic BTK-GFP-iresRFP or IKZF3-GFP-iresRFP construct, respectively. Reduction of the GFP signal measured by flow cytometry served as readout for BTK or IKZF3 degradation after degrader treatment.
(§3) Stable HEK293A-BTK-GFP-iresRFP cells were maintained in complete growth medium (DMEM high Glucose+10% FCS+1% L-Glutamine+1% NEAA+1% NaPyr.) with passaging performed twice per week. On Day 0, HEK293A-BTK-GFP-iresRFP or HEK293A-IKZF3-GFP-iresRFP and HEK293A-iresRFP cells were seeded at 10,000 cells/well in a 96-well microtiter plate in 260 μl complete medium. On Day 1, cells were treated in duplicate with 10-point 1:3 dilution series of compound using the HP D300 Digital Dispenser (Tecan). DMSO concentrations were normalized across the plate to 0.1%. On Day 2, after 24 h of incubation at 37° C., treatment media was discarded, cells rinsed with 100 ul/well PBS and then detached using 40 ul trypsin/well for 5 min. Trypsin was neutralized with 100 ul/well PBS+20% FCS). Flow cytometry was performed on the samples using the BD FACS CANTO II (Becton Dickinson). Cell identification was then performed using forward (FSC) vs. side scatter (SSC) plots. Single cell discrimination is performed using SSC-Width (SSC-W) vs. SSC-Height (SSC-H) plots. Median GFP values for 5,000 single cells are used to determine BTK levels. Median GFP values from HEK293A-iresRFP are used as a background signal and thus defining 0% BTK signal. Median GFP values from DMSO treated HEK293A-BTK-GFP-iresRFP or HEK293A-IKZF3-GFP-iresRFP are used to define 100% BTK signal for subsequent DC50 curves (concentration at 50% BTK degradation). GFP and RFP are read in the channels called FITC and PE, respectively.
(§4) Concentration response curves plotting relative reduction of the GFP signal (measured by flow cytometry) versus 10 compound concentrations (starting concentration 10 μM, 3 fold dilution steps) of the compounds allowed generation of DC50 values.
Data is shown in Table 2, in which, DC50 refers to the concentration at which 50% maximal degradation was observed; deg Amax is the extent of degradation and the value refers to the % protein remaining at the concentration at which maximum degradation is seen.

OCI-LY3 cells = assay: Resazurin cell viability assay in DLBCL cells (OCI-LY3); settings: Homo sapiens, OCI-Ly3, 72 h, OCI-LY3 cells (BTK independent), 50% growth inhibition, read-out: OCI-LY3 Prol GI50
Description: (§5) Compounds of the invention were tested in the following cellular assays. The terms in Table 1 are defined as follows: DC50 refers to the concentration at which 50% maximal degradation was observed; deg Amax is the extent of degradation and the value refers to the % protein remaining at the concentration at which maximum degradation is seen; Prol GI50 refers to the proliferation data and defines the concentration at which 50% growth inhibition was observed compared to the vehicle treated control at the end of the incubation time. TMD8 cells are BTK dependent and OCI-LY3 cells are BTK independent.
(§6) Cell Viability Assay in DLBCL (Diffuse Large B-Cell Lymphoma) Cells:
(§7) The effect of the BTK compounds on cell proliferation was measured by a Resazurin (Sigma, #R7017) based cell viability assay. TMD8 (BTK compound sensitive) and OCI-LY3 (BTK compound insensitive) cells were incubated for 72 h at 37° C. and 5% CO2 with the corresponding compound. Resazurin is a non-toxic, cell-permeable substrate that is virtually non-fluorescent. Upon entering living cells, Resazurin (Sigma, #R7017) is reduced to highly fluorescent Resorufin. The metabolic activity was assessed by measuring the fluorescence signal (ex. 530 nm; em. 600 nm).
(§8) TMD8 and OCI-Ly3 cells were seeded at day 0 in triplicates at a cell density of 1×10^4 cells per 150 μl/well in a 96-well plate (Costar #3904). Additional plates were prepared, in order to assess the basal metabolic activity of both cell lines at the beginning of the experiment. For these reference plates, Resazurin (Sigma, #R7017) was added to a final concentration of 13 μg/ml 3 h post seeding and was incubated for 2 h at 37° C. and 5% CO2. Following incubation, the fluorescent signal intensity of the 96-well plates was measured on a Mithras LB940 multimode plate reader at 530/600 nm (Berthold Technologies, Germany).
(§9) In parallel, 3 h post-seeding, test-plates were treated with compound at various concentrations, or with vehicle (DMSO) alone for 3 days. The compound addition to the plates was performed by using a HP D300 digital dispenser (TECAN, Switzerland). The compounds were tested in triplicate, 8-point serial dilution (1:4), with a start concentration of 10 μM for OCI-LY3 and 1 μM for the TMD8 cells, respectively. To assess the relative proliferation of the cells, Resazurin was added to each well directly to the medium to a final concentration of 13 μg/ml. The plates were incubated for 2 h at 37° C. and 5% CO2 to result in a 72 h endpoint. Following incubation, the fluorescent signal intensity of the 96-well plates were measured on a Mithras LB940 multimode plate reader at 530/600 nm (Berthold Technologies, Germany). The formation of Resorufin dye directly correlates with the number of metabolically active cells. For each triplicate treatment the mean and standard deviation were calculated and analyzed via curve fitting software to determine the respective compound concentration resulting in 50% growth inhibition (GI50) values. For each compound GI50 values were typically determined from at least 2 entirely independent experiments.
OCI-LY3 cells were acquired through a license agreement with University Health Network, Toronto, Canada. Cells are cultivated in RPMI1640 media (Gibco, #61870-010, lot. 1894759), supplemented with 10% FCS (HyClone, GE #SH30066.03, lot AB217603), 2 mM L-Glutamine (BioConcept, #5-10K50-H, lot. LA03467P), 1 mM Sodium Pyruvate (BioConcept, #5-60F00-H, lot. LB10510P), 10 mM HEPES (Gibco, #15630-056, lot. 1854074), 1% Pen/Strep (BioConcept, #4-01F00-H, lot. LB04235P).

BTK-GFP = biological target: T2, BTK-GFP (Homo sapiens, UniProt Q06187+Q96SW2); assay: BTK-GFP protein abundance flow cytometry assay in HEK293A cells; settings: 24 h; for BTK deg Amax %: % protein remaining at concentration of maximum degradation; for DC50: concentration at which 50% maximal degradation was observed
T2 construct: the BTK open reading frame (ORF) was first shuttled from a pcDNA-DEST40-BTK vector (Invitrogen library ID INV_20090504v1); expressed in transfected cells; host or cells: HEK293A cells (Invitrogen R70507), lentiviral transduction with pLenti6-BTK-GFP-Ires-RFP, blasticidin-selected
T2 sequence (Q06187 whole entry): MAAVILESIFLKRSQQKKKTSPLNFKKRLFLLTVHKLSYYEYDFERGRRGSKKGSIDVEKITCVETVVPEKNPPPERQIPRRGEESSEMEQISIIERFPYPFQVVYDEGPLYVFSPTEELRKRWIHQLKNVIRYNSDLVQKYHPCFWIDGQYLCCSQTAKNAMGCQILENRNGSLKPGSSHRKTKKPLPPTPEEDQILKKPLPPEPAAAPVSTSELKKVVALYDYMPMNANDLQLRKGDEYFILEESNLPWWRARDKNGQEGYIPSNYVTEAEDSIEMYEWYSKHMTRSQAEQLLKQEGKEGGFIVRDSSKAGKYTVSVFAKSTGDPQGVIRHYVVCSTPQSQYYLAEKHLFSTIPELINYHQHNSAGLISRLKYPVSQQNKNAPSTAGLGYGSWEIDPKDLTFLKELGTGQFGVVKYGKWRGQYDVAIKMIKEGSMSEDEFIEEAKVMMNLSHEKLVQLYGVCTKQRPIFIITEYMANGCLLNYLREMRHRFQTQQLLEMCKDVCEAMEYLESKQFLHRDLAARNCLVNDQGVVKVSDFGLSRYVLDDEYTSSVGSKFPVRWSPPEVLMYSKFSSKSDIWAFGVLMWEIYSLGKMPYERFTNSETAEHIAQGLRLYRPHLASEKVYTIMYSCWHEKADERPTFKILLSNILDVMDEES
T2 sequence (Q96SW2 whole entry): as the sequence (Q96SW2 whole entry partner) above
T2 sequence (Q16531 whole entry partner): as the sequence (Q16531 whole entry partner) above
Description: as §5, §1, §2, §3, §4

TMD8 cells = assay: Resazurin cell viability assay in DLBCL cells (TMD8); settings: Homo sapiens, TMD8, 72 h, TMD8 cells (BTK dependent), 50% growth inhibition, read-out: TMD8 Prol GI50
Description: as §5, §6, §7, §8, §9
TMD8 cells were acquired through a license agreement with Tokyo Medical and Dental University, Japan. Cells are cultivated in MEM Alpha (BioConcept, #1-23F01-I, lot. LB04262P) supplemented with 10% FCS (HyClone, GE #SH30066.03, lot AB217603), 2 mM L-Glutamine (BioConcept, #5-10K50-H, lot. LA03467P), 1% Pen/Strep (BioConcept, #4-01F00-H, lot. LB04235P).

IKZF3 deg Amax % (IKZF3-GFP; % protein remaining at maximum degradation) [%] | DC50 (IKZF3-GFP) [nM] | GI50 (OCI-LY3 cells) [nM] | BTK deg Amax % (BTK-GFP) [%] | DC50 (BTK-GFP) [nM] | SMILES | GI50 (TMD8 cells) [nM]
99.3 | > 370 | 4080 | 7.4 | 15.5 | COc1ccc(C(=O)N2CCC(CN3CCN(Cc4ccc(-c5cc6c(-c7cc(F)cc(NC(=O)N8C[C@@H](CC(C)C)[C@H](O)C8)c7C)ncnc6[nH]5)cc4)CC3)CC2)cc1N1CCC(=O)NC1=O [Compound 10, (3S,4R)—N-(3-(6-(4-((4-((1-(3-(2,4-Dioxotetrahydropyrimidin-1(2H)-yl)-4-methoxybenzoyl)piperidin-4-yl)methyl)piperazin-1-yl)methyl)phenyl)-7H-pyrrolo[2,3-d]pyrimidin-4-yl)-5-fluoro-2-methylphenyl)-3-hydroxy-4-isobutylpyrrolidine-1-carboxamide] | 2.31
 |  | 4480 | 3 | 0.8 | COc1ccc(C(=O)N2CCC(CCN3CCC(Oc4ccc(-c5cc6c(-c7cc(F)cc(NC(=O)N8C[C@H](CC(C)C)[C@@H](O)C8)c7C)ncnc6[nH]5)cc4)CC3)CC2)cc1N1CCC(=O)NC1=O [Compound 3, (3R,4S)—N-(3-(6-(4-((1-(2-(1-(3-(2,4-Dioxotetrahydropyrimidin-1(2H)-yl)-4-methoxybenzoyl)piperidin-4-yl)ethyl)piperidin-4-yl)oxy)phenyl)-7H-pyrrolo[2,3-d]pyrimidin-4-yl)-5-fluoro-2-methylphenyl)-3-hydroxy-4-isobutylpyrrolidine-1-carboxamide] | 0.19
 |  | 7150 | 6.3 | 1.7 | COc1ccc(C(=O)N2CCC(CN3CCN(Cc4ccc(-c5cc6c(-c7cc(F)cc(NC(=O)N8CC(O)C(CC(C)C)C8)c7C)ncnc6[nH]5)cc4)CC3)CC2)cc1N1CCC(=O)NC1=O (racemic) [Compound 9, (cis-rac)-N-(3-(6-(4-((4-((1-(3-(2,4-Dioxotetrahydropyrimidin-1 (2H)-yl)-4-methoxybenzoyl)piperidin-4-yl)methyl)piperazin-1-yl)methyl)phenyl)-7H-pyrrolo[2,3-d]pyrimidin-4-yl)-5-fluoro-2-methylphenyl)-3-hydroxy-4-isobutylpyrrolidine-1-carboxamide] | 0.75
 |  | 8220 | 1.9 | 1.5 | COc1ccc(C(=O)N2CCC(CCN3CCC(OCc4ccc(-c5cc6c(-c7cc(F)cc(NC(=O)N8CC(O)C(CC(C)C)C8)c7C)ncnc6[nH]5)cc4)CC3)CC2)cc1N1CCC(=O)NC1=O (racemic) [Compound 4, (cis-rac)-N-(3-(6-(4-(((1-(2-(1-(3-(2,4-Dioxotetrahydropyrimidin-1 (2H)-yl)-4-methoxybenzoyl)piperidin-4-yl)ethyl)piperidin-4-yl)oxy)methyl)phenyl)-7H-pyrrolo[2,3-d]pyrimidin-4-yl)-5-fluoro-2-methylphenyl)-3-hydroxy-4-isobutylpyrrolidine-1-carboxamide] | 0.34
